Assay results from ChEMBL document CHEMBL1131911, “Synthesis of 2-(2-adamantyl)piperidines and structure anti-influenza virus A activity relationship study using a combination of NMR spectroscopy and molecular modeling” (1999).
≈ marks a conversion by molar mass, not a printed value.

Assays:
MDCK [1] = test: Anti-influenza virus activity was evaluated in Madin-Darby canine kidney (MDCK) cells against influenza A H2N2 strain (A2 Japan/305/57); format: functional; settings: Canis lupus familiaris
MDCK [2] = test: Anti-influenza virus activity was evaluated in Madin-Darby canine kidney (MDCK) cells against influenza B (Hong Kong/5/72); format: functional; settings: Canis lupus familiaris
MDCK [3] = test: Anti-influenza virus activity was evaluated in Madin-Darby canine kidney (MDCK) cells against influenza A H3N2 (X31); format: functional; settings: Canis lupus familiaris
MDCK [4] = test: Concentration required to reduce the viability of MDCK cells; format: functional, Canis lupus familiaris

CCN1CCCCC1C1C2CC3CC(C2)CC1C3 (stereo unspecified)
MIC50 (MDCK [1]): > 28 µM | MIC50 (MDCK [2]): > 28 µM | MIC50 (MDCK [3]): > 28 µM | MTC50 (MDCK [4]): 143 µM

CN1CCCCC1C1C2CC3CC(C2)CC1C3 (stereo unspecified)
MIC50 (MDCK [1]): > 143 µM | MIC50 (MDCK [2]): > 143 µM | MIC50 (MDCK [3]): > 143 µM | MTC50 (MDCK [4]): 977 µM

C1CCN(CC2CC2)C(C2C3CC4CC(C3)CC2C4)C1 (stereo unspecified)
MIC50 (MDCK [1]): 143 µM (≈ 39.1 µg/mL) | MIC50 (MDCK [2]): > 143 µM | MIC50 (MDCK [3]): > 143 µM | MTC50 (MDCK [4]): 977 µM

C1CCC(C2C3CC4CC(C3)CC2C4)NC1 (stereo unspecified)
MIC50 (MDCK [1]): 7.8 µM (≈ 1.71 µg/mL) | MIC50 (MDCK [2]): > 977 µM | MIC50 (MDCK [3]): > 977 µM | MTC50 (MDCK [4]): >977 µM

NC12CC3CC(CC(C3)C1)C2 [AMANTADINE]
MIC50 (MDCK [1]): 28.3 µM (≈ 4.28 µg/mL) | MTC50 (MDCK [4]): 1333 µM

NC(=O)c1ncn([C@@H]2O[C@H](CO)[C@@H](O)[C@H]2O)n1 [RIBAVIRIN]
MIC50 (MDCK [1]): 31.1 µM (≈ 7.59 µg/mL) | MIC50 (MDCK [2]): 41 µM (≈ 10 µg/mL) | MIC50 (MDCK [3]): 41 µM (≈ 10 µg/mL) | MTC50 (MDCK [4]): >1025 µM

CC(N)C12CC3CC(CC(C3)C1)C2 (stereo unspecified) [RIMANTADINE]
MIC50 (MDCK [1]): 20.9 µM (≈ 3.75 µg/mL) | MIC50 (MDCK [2]): > 93 µM | MIC50 (MDCK [3]): > 56 µM | MTC50 (MDCK [4]): 1160 µM
